Patent publication US11505523B2, “HDAC8 inhibitors for treating cancer” (City of Hope, priority 2013, dated 2022)

Legend:
CM-p53 protein complex = assay: Interaction of CM with p53 under HDAC8i treatment; assay type: cell-based
From the text: Cells were lysed in RIPA buffer containing protease inhibitor cocktail (Roche) and MG132. Antibodies used for IP were conjugated with protein A/G beads using the antibody cross-linking kit (Pierce Biotechnology, Rockford, Ill.) following manufacturer's protocol. For Western blot, proteins were resolved in 10% SDS-PAGE. The antibodies used induced anti-FLAG (Sigma), anti-HDAC8, anti-CBFβ (Santa Cruz), anti-p53 (DO-1), anti-Ac-p53 (K379) (Cell Signaling), anti-p53 (Cell signaling) and anti-β-actin (Sigma). Horseradish peroxidase-conjugated anti-rabbit or anti-mouse secondary antibodies (Jackson ImmunoResearch, West Grove Pa.) were used, followed by detection using the SuperFemto kit (Pierce Biotechnology, Rockford, Ill.).
Class 1 HDACs, including HDAC1, HDAC2, and HDAC3, reportedly could inhibit p53 activity by deacetylating p53 [41-43]. […] To test this, we used lentivirus (pLKO. 1) mediated expression of 2 independent small-hairpin (sh)-RNA sequences against Hdac8 to specifically knock-down Hdac8 in 32D-CM cells. Cells were exposed to IR (3Gy) and analyzed for levels of p53 acetylation 6 h after.

Cl1-1 cells = assay: Cytotoxicity / anti-proliferative activity in CL1-1 lung cancer cells; conditions: read-out: Cytotoxicity IC50 Cl1-1; mean SD of three determinations
HDAC6 = HDAC6 (Homo sapiens (Human), UniProt Q9UBN7); assay: Inhibition of purified HDAC6; conditions: read-out: HDAC 6 IC50; class II
[1] = tested on: dTomato^+/cKit^+ AML cells; assay: In vivo administration of 22d to mice transplanted with AML cells
Description: FIG. 7A-7I. […] FIG. 7A: Schematic illustration of experimental design. Cbfb^+/56MMx1Cre/tdTomato^+ mice were induced with pIpC and AML cells were isolated from bone marrow of moribund mice and transplanted into sub-lethally irradiated (6.5 Gy) C57Bl/6 congenic mice. […] AML engraftment was analyzed at the end of the treatment period, and transplanted into 2nd recipients. Recipients were analyzed for engraftment at 8 weeks or monitored for leukemia onset and survival. […] Mice were analyzed 8 weeks after transplantation. […] FIG. 7G.
AML cells (1×10^6 or 2×10^6) were directly transplanted into sub-lethally irradiated congenic recipients. […] To further assess the impact on LSC activity, we transplanted bone marrow cells (2×10^6) from these treated mice into secondary recipients and analyzed for AML engraftment.

MOLM13 cells [2] = assay: Proliferation of MOLM13 cells, luminescent cell viability assay; assay type: cell-based, human; conditions: 48-hr, luminescent cell viability assay; read-out: MOLM13 Proliferation IC50
H1299 cells = assay: Cytotoxicity / anti-proliferative activity in H1299 lung cancer cells
MOLM13 cells [3] = assay: Survival/apoptosis of MOLM13 AML cells by Annexin V labeling; assay type: cell-based, human
HDAC3 = HDAC3 (Homo sapiens (Human), UniProt O15379); assay: Inhibition of purified HDAC3; conditions: read-out: HDAC 3 IC50; class I
HDAC10 = HDAC10 (Homo sapiens (Human), UniProt Q969S8); assay: Inhibition of purified HDAC10; conditions: read-out: HDAC 10 IC50; class II
A549 cells = assay: Cytotoxicity / anti-proliferative activity in A549 lung cancer cells; conditions: result in words
[4] = tested on: dTomato^+/cKit^+ AML cells (CBFβ-SMMHC^+ LSCs); assay: Ex vivo treatment of CM-induced AML cells followed by transplantation into irradiated congenic mice; assay type: in vivo
Description: FIGS. 6A-6G. […] FIG. 6A: Schematic illustration of experimental design. […] Progression of AML was monitored by engraftment of AML cells in peripheral blood (PB) over time (4, 8 weeks) and engraftment in bone marrow and spleen was analyzed 8 weeks after transplantation. A cohort of mice was monitored for AML development and disease-free survival. […] Results represent mean±SD. […] FIG. 6D: Representative FACS plots of engrafted dTomato^+/cKit^+ AML cells in the bone marrow or spleen 8 weeks after transplantation.
Ai14 Cre reporter tdTomato mice on C57BL/6 background were obtained from the Jackson Laboratory. To induce CBFβ-SMMHC expression, 4-6 week old Mx1-Cre/Cbfb^56M/+ mice were injected with 250 μg of polyinosinic-polycytidylic acid (pIpC) (InvivoGen) every 2 days for 7 doses. Similarly treated Cbfb^56M/+ littermates without Cre were used as control. Pre-leukemic cells were isolated from mice 2 weeks after the last dose of pIpC treatment. For leukemia development, induced mice were monitored up to 6 months and analyzed when moribund. Transplantation of AML cells (2×10^6 cells/mouse) was performed via tail vein injection into sub-lethally irradiated (6.5 Gy) 6-8-week-old congenic C57BL/6 mice (CD45.1^+/CD45.2^+). All mice were maintained in an AAALAC-accredited animal facility at City of Hope, and all experimental procedures involving mice were performed in accordance with federal and state government guidelines and established institutional guidelines and protocols approved by the Institutional Animal Care and Use Committee at Beckman Research Institute of City of Hope.
AML LSCs are functionally characterized by their capacity to engraft and reproduce AML disease in transplanted host. […] To test this, we made use of our murine CM-induced AML model allowing for high-level engraftment and reproducible disease upon secondary transplantation. To facilitate tracking of CM-expressing AML cells, we created Cbfb^56M/+/Mx1-Cre mice with a Cre-reporter line expressing tdTomato fluorescence protein following Cre-mediated recombination.

Chain of HDAC3 (O15379 whole entry, looked up, species assumed): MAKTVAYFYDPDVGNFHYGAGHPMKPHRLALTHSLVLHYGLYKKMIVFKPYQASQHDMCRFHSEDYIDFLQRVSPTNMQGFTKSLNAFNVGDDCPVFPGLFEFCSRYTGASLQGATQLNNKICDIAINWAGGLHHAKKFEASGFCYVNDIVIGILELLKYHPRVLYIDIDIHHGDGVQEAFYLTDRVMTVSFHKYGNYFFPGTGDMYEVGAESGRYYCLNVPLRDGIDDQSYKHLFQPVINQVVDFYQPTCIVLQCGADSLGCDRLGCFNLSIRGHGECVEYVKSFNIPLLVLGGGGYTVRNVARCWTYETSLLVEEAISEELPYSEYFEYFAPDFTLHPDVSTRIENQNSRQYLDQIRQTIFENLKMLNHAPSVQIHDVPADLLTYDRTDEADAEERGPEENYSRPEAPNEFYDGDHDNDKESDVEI
Chain of HDAC3 (Q9Y618 whole entry partner, looked up, species assumed): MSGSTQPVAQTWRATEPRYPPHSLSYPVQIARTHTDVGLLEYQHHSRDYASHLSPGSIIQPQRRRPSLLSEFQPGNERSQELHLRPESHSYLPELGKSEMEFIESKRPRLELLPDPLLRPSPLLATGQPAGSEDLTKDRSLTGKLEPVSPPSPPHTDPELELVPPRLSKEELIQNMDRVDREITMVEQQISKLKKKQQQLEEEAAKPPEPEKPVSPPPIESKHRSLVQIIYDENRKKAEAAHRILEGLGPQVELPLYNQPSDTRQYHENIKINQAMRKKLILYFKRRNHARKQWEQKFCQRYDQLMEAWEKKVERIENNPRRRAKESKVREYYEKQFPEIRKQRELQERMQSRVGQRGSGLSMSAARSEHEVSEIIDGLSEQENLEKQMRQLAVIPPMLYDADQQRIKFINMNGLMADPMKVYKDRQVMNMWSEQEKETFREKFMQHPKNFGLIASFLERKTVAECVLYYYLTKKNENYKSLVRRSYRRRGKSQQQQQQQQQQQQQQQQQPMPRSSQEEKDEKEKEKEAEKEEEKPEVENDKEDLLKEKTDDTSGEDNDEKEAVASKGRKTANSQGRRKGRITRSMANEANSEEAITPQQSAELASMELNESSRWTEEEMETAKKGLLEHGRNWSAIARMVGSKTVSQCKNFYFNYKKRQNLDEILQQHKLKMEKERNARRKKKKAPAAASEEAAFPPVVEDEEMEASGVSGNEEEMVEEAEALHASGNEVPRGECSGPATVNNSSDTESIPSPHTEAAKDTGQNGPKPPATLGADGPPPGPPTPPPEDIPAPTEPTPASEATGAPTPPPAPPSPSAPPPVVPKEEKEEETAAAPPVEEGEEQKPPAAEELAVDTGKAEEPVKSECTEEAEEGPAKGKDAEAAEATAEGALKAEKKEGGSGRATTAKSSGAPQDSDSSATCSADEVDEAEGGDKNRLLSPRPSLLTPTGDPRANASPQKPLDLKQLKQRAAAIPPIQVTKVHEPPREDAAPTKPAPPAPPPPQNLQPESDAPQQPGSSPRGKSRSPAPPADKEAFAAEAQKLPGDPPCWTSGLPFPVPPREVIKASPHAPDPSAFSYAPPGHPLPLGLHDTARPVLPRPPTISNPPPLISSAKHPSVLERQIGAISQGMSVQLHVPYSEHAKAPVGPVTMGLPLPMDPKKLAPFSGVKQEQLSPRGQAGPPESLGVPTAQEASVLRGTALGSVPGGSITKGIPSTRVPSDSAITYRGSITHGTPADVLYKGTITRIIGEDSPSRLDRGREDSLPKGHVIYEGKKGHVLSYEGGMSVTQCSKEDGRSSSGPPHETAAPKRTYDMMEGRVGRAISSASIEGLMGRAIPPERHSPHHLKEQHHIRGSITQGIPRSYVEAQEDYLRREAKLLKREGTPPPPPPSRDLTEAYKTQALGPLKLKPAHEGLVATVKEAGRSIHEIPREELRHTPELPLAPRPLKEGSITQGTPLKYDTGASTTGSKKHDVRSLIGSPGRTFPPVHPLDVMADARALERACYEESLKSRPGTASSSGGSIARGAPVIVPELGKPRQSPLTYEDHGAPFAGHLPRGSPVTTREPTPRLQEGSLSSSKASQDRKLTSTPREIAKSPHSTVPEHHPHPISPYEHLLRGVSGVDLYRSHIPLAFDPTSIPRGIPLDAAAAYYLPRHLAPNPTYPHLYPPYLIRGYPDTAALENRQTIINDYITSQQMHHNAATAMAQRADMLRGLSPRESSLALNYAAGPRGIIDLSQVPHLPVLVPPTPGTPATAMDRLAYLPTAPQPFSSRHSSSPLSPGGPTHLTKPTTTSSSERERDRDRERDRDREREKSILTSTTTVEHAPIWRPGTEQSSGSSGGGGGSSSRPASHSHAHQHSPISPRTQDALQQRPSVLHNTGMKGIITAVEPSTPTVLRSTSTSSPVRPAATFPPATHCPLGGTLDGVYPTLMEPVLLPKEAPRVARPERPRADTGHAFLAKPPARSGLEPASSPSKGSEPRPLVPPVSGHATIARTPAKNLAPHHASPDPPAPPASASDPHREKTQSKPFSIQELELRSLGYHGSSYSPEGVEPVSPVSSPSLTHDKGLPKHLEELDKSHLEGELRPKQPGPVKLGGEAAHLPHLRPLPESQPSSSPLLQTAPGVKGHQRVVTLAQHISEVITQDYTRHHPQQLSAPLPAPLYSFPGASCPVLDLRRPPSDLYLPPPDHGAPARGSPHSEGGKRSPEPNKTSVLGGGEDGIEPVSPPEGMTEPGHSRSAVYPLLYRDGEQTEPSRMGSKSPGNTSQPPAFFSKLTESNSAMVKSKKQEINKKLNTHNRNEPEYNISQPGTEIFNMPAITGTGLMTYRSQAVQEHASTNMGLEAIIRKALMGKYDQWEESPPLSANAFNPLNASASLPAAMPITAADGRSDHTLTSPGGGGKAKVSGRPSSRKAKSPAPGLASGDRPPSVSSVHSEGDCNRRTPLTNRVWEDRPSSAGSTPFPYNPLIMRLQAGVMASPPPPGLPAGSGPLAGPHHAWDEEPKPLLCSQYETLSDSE
Chain of HDAC10 (Q969S8 whole entry, species assumed): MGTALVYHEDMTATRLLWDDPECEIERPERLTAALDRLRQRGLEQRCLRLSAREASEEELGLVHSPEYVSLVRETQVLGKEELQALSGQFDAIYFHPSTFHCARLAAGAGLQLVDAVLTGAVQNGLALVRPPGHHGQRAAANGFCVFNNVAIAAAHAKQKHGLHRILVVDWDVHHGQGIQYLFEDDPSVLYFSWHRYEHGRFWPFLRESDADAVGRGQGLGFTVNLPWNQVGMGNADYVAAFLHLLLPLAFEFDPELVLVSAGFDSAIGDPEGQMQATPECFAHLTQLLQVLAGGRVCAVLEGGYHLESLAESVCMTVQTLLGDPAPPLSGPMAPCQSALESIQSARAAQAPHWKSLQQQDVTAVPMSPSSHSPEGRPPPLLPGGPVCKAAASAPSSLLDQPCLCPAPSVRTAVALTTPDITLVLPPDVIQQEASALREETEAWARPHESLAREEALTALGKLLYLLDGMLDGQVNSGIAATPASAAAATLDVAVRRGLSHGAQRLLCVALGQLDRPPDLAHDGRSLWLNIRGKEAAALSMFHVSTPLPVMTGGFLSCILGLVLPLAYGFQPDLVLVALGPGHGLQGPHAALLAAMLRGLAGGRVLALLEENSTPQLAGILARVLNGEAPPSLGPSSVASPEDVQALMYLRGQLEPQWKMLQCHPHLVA
Chain of HDAC6 (Q9UBN7 whole entry, species assumed): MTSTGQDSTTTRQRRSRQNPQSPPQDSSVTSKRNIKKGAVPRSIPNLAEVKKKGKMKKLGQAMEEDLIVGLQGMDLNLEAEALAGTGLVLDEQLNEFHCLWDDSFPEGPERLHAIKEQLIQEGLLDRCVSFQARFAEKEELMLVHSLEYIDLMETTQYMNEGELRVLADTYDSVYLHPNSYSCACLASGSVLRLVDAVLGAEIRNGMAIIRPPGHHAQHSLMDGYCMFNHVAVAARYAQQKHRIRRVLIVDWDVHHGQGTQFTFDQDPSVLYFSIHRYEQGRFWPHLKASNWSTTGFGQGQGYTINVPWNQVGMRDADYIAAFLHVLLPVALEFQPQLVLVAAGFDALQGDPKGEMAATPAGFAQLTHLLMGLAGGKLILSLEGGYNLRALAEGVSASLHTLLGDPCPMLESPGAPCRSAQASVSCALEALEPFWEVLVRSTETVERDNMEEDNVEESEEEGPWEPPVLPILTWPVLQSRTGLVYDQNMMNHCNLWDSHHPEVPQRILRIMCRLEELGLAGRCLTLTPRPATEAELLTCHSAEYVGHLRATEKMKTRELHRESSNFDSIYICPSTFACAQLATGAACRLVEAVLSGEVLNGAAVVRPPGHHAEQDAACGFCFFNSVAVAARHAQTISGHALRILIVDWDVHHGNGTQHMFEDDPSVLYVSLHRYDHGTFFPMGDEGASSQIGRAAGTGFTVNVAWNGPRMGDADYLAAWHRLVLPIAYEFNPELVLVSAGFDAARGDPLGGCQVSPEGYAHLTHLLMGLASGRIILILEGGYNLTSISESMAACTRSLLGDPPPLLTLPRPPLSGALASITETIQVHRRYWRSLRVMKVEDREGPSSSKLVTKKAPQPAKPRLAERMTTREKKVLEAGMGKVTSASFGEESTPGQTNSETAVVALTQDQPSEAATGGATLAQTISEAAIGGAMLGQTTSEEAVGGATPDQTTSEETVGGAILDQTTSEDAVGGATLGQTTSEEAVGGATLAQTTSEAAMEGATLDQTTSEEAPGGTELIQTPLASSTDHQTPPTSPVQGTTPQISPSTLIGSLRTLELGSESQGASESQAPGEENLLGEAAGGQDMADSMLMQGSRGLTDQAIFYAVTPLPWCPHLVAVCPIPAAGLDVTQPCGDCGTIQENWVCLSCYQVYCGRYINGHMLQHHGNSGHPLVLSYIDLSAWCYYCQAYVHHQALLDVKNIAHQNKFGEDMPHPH

## COc1ccc(/C=C/C(=O)NO)c(-c2ccc(-c3ccccc3)cc2)c1 [Compound 22d, (E)-N-Hydroxy-4-methoxy-2-(biphenyl-4-yl)cinnamide]
CM-p53 protein complex
  interaction of CM with p53: did not disrupt the interaction of CM with p53
Cl1-1 cells
  IC50: > 10 nM
HDAC6
  IC50: > 20 nM
[1]; 5-7 weeks after transplant of 5×10^6 BM cells
  leukemia onset in secondary recipients: no signs of leukemia
[1]; 8 weeks after transplantation of BM from treated mice
  frequency and number of AML cells in bone marrow of secondary recipients: Significant reduction in the frequency (p<0.0001) and the number (p=0.0006)
[1]; intraperitoneal 50 mg/kg/dose twice a day for 2 weeks, vs vehicle
  frequency and number of dTomato+/cKit+ AML cells in the bone marrow: significantly reduced the frequency (p=0.0097) and the number (p=0.0101)
MOLM13 cells [2]
  IC50: 2420 nM
H1299 cells; read-out: Cytotoxicity IC50 H1299, mean SD of three determinations
  IC50: 7.2 ± 0.7 nM
H1299 cells; result in words
  anti-proliferative effects in H1299 cells: moderate anti-proliferative effects
MOLM13 cells [3]; 48-hr, Annexin V labeling, read-out: MOLM13 Apoptosis IC50
  IC50: 3620 nM
MOLM13 cells [3]; 48 h, result in words
  survival of MOLM13 cells: decreases with increased HDAC8i concentration
HDAC3
  IC50: 3 ± 0.1 nM
HDAC10
  IC50: > 20 nM
A549 cells
  anti-proliferative effects in A549 cells: moderate anti-proliferative effects
[4]; 8 weeks after transplantation, vs vehicle-treated cells
  frequencies of dTomato+/cKit+ AML cells in BM and spleen: significantly (p=0.025) reduced frequencies
[4]; 8 weeks after transplantation, vs vehicle-treated group
  total numbers of dTomato+/cKit+ AML cells in BM and spleen: significantly (p=0.025) lower
[4]; cells treated 10 μM 48 h before transplantation
  dTomato+/cKit+ cells in the peripheral blood: barely detectable
[4]; equal number (2×10^6) of treated AML cells transplanted
  engraftment of dTomato+ and dTomato+/cKit+ cells: reduced the engraftment
[4]; mouse, in vivo
  AML onset and survival of transplanted mice: prevented AML reoccurrence
  survival of mice: enhanced survival
